Laboratory results published in article PMC9234962, “Optimization of Peptide Linker-Based Fluorescent Ligands for the Histamine H1 Receptor” (Journal of Medicinal Chemistry, 2022).
Square brackets hold non-standard residues; d marks the D form. Peptide text beside a SMILES is read from it. * marks the point of attachment. X1 = O=C(COc1ccc(/C=C/C2=[N+]3C(=Cc4ccc(-c5cccs5)n4[B-]3(F)F)C=C2)cc1)*; Propanoyl(3-Pip(4-O-2-BnPh)) = O=C(CCN1CCC(Oc2ccccc2Cc2ccccc2)CC1)*; βAla = NCCC(=O)O

Tests used:
Nluc-H1R [1] = target: T1, Nluc-H1R (Homo sapiens, UniProt P35367); experiment: NanoBRET saturation binding assay on Nluc-H1R expressing HEK293T cells; set-up: expressed in transfected cells; settings: saturation binding curves, whole HEK293T cells; for pKD: non-specific with 10 μM mepyramine, mean ± SEM
From the text: Total and non-specific saturation binding curves from NanoBRET saturation binding assay were fitted simultaneously using eq 1: [drawing 4] 1 where Bmax is the maximal specific binding, [B] is the concentration of fluorescent ligand in nM, KD is the equilibrium dissociation constant in nM, M is the slope of the non-specific component, and C is the intercept with the Y axis.

Nluc-H1R [2] = target: T1, Nluc-H1R; experiment: NanoBRET competition binding assay (displacement of 1) on Nluc-H1R expressing HEK293T cells

T1 sequence (P35367 whole entry): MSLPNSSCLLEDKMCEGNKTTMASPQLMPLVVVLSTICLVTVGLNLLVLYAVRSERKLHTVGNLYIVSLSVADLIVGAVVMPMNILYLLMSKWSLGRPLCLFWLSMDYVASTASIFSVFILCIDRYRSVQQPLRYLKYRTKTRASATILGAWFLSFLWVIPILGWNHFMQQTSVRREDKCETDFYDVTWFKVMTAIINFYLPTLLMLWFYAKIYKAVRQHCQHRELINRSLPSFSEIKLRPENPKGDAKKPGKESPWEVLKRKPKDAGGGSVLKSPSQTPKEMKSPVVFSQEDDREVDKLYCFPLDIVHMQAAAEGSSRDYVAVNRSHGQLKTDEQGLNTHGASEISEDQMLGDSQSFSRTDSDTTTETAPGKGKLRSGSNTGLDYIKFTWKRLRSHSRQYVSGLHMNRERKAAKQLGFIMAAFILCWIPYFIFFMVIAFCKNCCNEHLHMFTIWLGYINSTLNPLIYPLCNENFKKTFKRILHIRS

Row | Ki (Nluc-H1R [2]; displacement of 1 (25 nM, KD = 8 nM), whole HEK293T cells, Cheng–Prusoff) [nM] | pKi/pKD (H1R) (Nluc-H1R [2]; supplementary CSV, unlabeled congeners (pKi)) | Compound | Kd (Nluc-H1R [1]) [nM] | pKD (Nluc-H1R [1])
1 |  |  | CC(C)[C@H](NC(=O)CCN1CCC(Oc2ccccc2Cc2ccccc2)CC1)C(=O)N[C@@H](CO)C(=O)N[C@@H](CC(N)=O)C(=O)N[C@@H](Cn1cc(COc2ccc(/C=C/C3=[N+]4C(=Cc5ccc(-c6cccs6)n5[B-]4(F)F)C=C3)cc2)nn1)C(N)=O [Compound 22a, (S)-N1-((S)-1-Amino-3-(4-((4-((E)-2-(5,5-difluoro-7-(thiophen-2-yl)-5H-5λ^4,6λ^4-dipyrrolo[1,2-c:2’,1’-f][1,3,2]diazaborinin-3-yl)vinyl)phenoxy)methyl)-1H-1,2,3-triazol-1-yl)-1-oxopropan-2-yl)-2-((S)-2-((S)-2-(3-(4-(2-benzylphenoxy)piperidin-1-yl)propanamido)-3-methylbutanamido)-3-hydroxypropanamido)succinamide] | 28 | 7.55 ± 0.07
2 |  |  | C[C@H](NC(=O)CCN1CCC(Oc2ccccc2Cc2ccccc2)CC1)C(=O)N[C@@H](C)C(=O)N[C@@H](C)C(=O)N[C@@H](Cn1cc(COc2ccc(/C=C/C3=[N+]4C(=Cc5ccc(-c6cccs6)n5[B-]4(F)F)C=C3)cc2)nn1)C(N)=O [Compound 22b, (S)-N-((S)-1-Amino-3-(4-((4-((E)-2-(5,5-difluoro-7-(thiophen-2-yl)-5H-5λ^4,6λ^4-dipyrrolo[1,2-c:2’,1’-f][1,3,2]diazaborinin-3-yl)vinyl)phenoxy)methyl)-1H-1,2,3-triazol-1-yl)-1-oxopropan-2-yl)-2-((S)-2-((S)-2-(3-(4-(2-benzylphenoxy)piperidin-1-yl)propanamido)propanamido)propanamido)propenamide] | 20 | 7.70 ± 0.05
3 |  |  | CC(C)[C@H](NC(=O)CCN1CCC(Oc2ccccc2Cc2ccccc2)CC1)C(=O)N[C@@H](CCC(=O)O)C(=O)N[C@@H](CC(N)=O)C(=O)N[C@@H](Cn1cc(COc2ccc(/C=C/C3=[N+]4C(=Cc5ccc(-c6cccs6)n5[B-]4(F)F)C=C3)cc2)nn1)C(N)=O [Compound 22c, (S)-5-(((S)-4-Amino-1-(((S)-1-amino-3-(4-((4-((E)-2-(5,5-difluoro-7-(thiophen-2-yl)-5H-5λ^4,6λ^4-dipyrrolo[1,2-c:2’,1’-f][1,3,2]diazaborinin-3-yl)vinyl)phenoxy)methyl)-1H-1,2,3-triazol-1-yl)-1-oxopropan-2-yl)amino)-1,4-dioxobutan-2-yl)amino)-4-((S)-2-(3-(4-(2-benzylphenoxy)piperidin-1-yl)propanamido)-3-methylbutanamido)-5-oxopentanoic Acid] | 162 | 6.79 ± 0.04
4 |  |  | CC(C)[C@H](NC(=O)CCN1CCC(Oc2ccccc2Cc2ccccc2)CC1)C(=O)N[C@@H](CO)C(=O)N[C@@H](CC(N)=O)C(=O)NCCC(=O)N[C@@H](CCCn1cc(COc2ccc(/C=C/C3=[N+]4C(=Cc5ccc(-c6cccs6)n5[B-]4(F)F)C=C3)cc2)nn1)C(N)=O [Compound 28a, (S)-N1-(3-(((S)-1-Amino-5-(4-((4-((E)-2-(5,5-difluoro-7-(thiophen-2-yl)-5H-5λ^4,6λ^4-dipyrrolo[1,2-c:2’,1’-f][1,3,2]diazaborinin-3-yl)vinyl)phenoxy)methyl)-1H-1,2,3-triazol-1-yl)-1-oxopentan-2-yl)amino)-3-oxopropyl)-2-((S)-2-((S)-2-(3-(4-(2-benzylphenoxy)piperidin-1-yl)propanamido)-3-methylbutanamido)-3-hydroxypropanamido)succinamide] | 20 | 7.70 ± 0.05
5 |  |  | C[C@H](NC(=O)CCN1CCC(Oc2ccccc2Cc2ccccc2)CC1)C(=O)N[C@@H](C)C(=O)N[C@@H](C)C(=O)NCCC(=O)N[C@@H](CCCn1cc(COc2ccc(/C=C/C3=[N+]4C(=Cc5ccc(-c6cccs6)n5[B-]4(F)F)C=C3)cc2)nn1)C(N)=O [Compound 28b, (S)-2-((6S,9S,12S)-16-(4-(2-Benzylphenoxy)piperidin-1-yl)-6,9,12-trimethyl-5,8,11,14-tetraoxo-4,7,10,13-tetraazahexadecanamido)-5-(4-((4-((E)-2-(5,5-difluoro-7-(thiophen-2-yl)-5H-5λ^4,6λ^4-dipyrrolo[1,2-c:2’,1’-f][1,3,2]diazaborinin-3-yl)vinyl)phenoxy)methyl)-1H-1,2,3-triazol-1-yl)pentanamide] | 14 | 7.86 ± 0.06
6 |  |  | CC(C)[C@H](NC(=O)CCN(C)CC/C=C1\c2ccccc2COc2ccccc21)C(=O)N[C@@H](CO)C(=O)N[C@@H](CC(N)=O)C(=O)NCCC(=O)N[C@@H](CCCn1cc(COc2ccc(/C=C/C3=[N+]4C(=Cc5ccc(-c6cccs6)n5[B-]4(F)F)C=C3)cc2)nn1)C(N)=O [Compound 28c, (S)-N1-(3-(((S)-1-Amino-5-(4-((4-((E)-2-(5,5-difluoro-7-(thiophen-2-yl)-5H-5λ^4,6λ^4-dipyrrolo[1,2-c:2’,1’-f][1,3,2]diazaborinin-3-yl)vinyl)phenoxy)methyl)-1H-1,2,3-triazol-1-yl)-1-oxopentan-2-yl)amino)-3-oxopropyl)-2-((S)-2-((S)-2-(3-(((E)-3-(dibenzo[b,e]oxepin-11(6H)-ylidene)propyl)(methyl)amino)propanamido)-3-methylbutanamido)-3-hydroxypropanamido)succinamide] | 19 | 7.72 ± 0.11
7 |  |  | C[C@H](NC(=O)CCN(C)CC/C=C1\c2ccccc2COc2ccccc21)C(=O)N[C@@H](C)C(=O)N[C@@H](C)C(=O)NCCC(=O)N[C@@H](CCCn1cc(COc2ccc(/C=C/C3=[N+]4C(=Cc5ccc(-c6cccs6)n5[B-]4(F)F)C=C3)cc2)nn1)C(N)=O [Compound 28d] | 5 | 8.27 ± 0.05
8 |  |  | CC(C)[C@H](NC(=O)CCN1CCC(Oc2ccccc2Cc2ccccc2)CC1)C(=O)N[C@@H](C)C(=O)N[C@@H](CC(N)=O)C(=O)NCCC(=O)N[C@@H](CCCCNC(=O)COc1ccc(/C=C/C2=[N+]3C(=Cc4ccc(-c5cccs5)n4[B-]3(F)F)C=C2)cc1)C(N)=O [Compound 31b, (S)-N1-(3-(((S)-1-Amino-6-(2-(4-((E)-2-(5,5-difluoro-7-(thiophen-2-yl)-5H-5λ^4,6λ^4-dipyrrolo[1,2-c:2’,1’-f][1,3,2]diazaborinin-3-yl)vinyl)phenoxy)acetamido)-1-oxohexan-2-yl)amino)-3-oxopropyl)-2-((S)-2-((S)-2-(3-(4-(2-benz-ylphenoxy)piperidin-1-yl)propanamido)-3-methylbutanamido)propanamido)succinamide] ({Propanoyl(3-Pip(4-O-2-BnPh))}-VAN[βAla]K(X1)-NH2) | 5 | 8.34 ± 0.09
9 |  |  | C[C@@H](O)[C@H](NC(=O)CCN1CCC(Oc2ccccc2Cc2ccccc2)CC1)C(=O)N[C@@H](CO)C(=O)N[C@@H](CC(N)=O)C(=O)NCCC(=O)N[C@@H](CCCCNC(=O)COc1ccc(/C=C/C2=[N+]3C(=Cc4ccc(-c5cccs5)n4[B-]3(F)F)C=C2)cc1)C(N)=O [Compound 31c, (S)-N1-(3-(((S)-1-Amino-6-(2-(4-((E)-2-(5,5-difluoro-7-(thiophen-2-yl)-5H-5λ^4,6λ^4-dipyrrolo[1,2-c:2’,1’-f][1,3,2]diazaborinin-3-yl)vinyl)phenoxy)acetamido)-1-oxohexan-2-yl)amino)-3-oxopropyl)-2-((S)-2-((2S,3R)-2-(3-(4-(2-benzylphenoxy)piperidin-1-yl)propanamido)-3-hydroxy-butanamido)-3-hydroxypropanamido)succinamide] ({Propanoyl(3-Pip(4-O-2-BnPh))}-TSN[βAla]K(X1)-NH2) | 6 | 8.20 ± 0.07
10 |  |  | C[C@H](NC(=O)[C@@H](NC(=O)CCN1CCC(Oc2ccccc2Cc2ccccc2)CC1)[C@@H](C)O)C(=O)N[C@@H](CC(N)=O)C(=O)NCCC(=O)N[C@@H](CCCCNC(=O)COc1ccc(/C=C/C2=[N+]3C(=Cc4ccc(-c5cccs5)n4[B-]3(F)F)C=C2)cc1)C(N)=O [Compound 31d, (S)-N1-(3-(((S)-1-Amino-6-(2-(4-((E)-2-(5,5-difluoro-7-(thiophen-2-yl)-5H-5λ^4,6λ^4-dipyrrolo[1,2-c:2’,1’-f][1,3,2]diazaborinin-3-yl)vinyl)phenoxy)acetamido)-1-oxohexan-2-yl)amino)-3-oxopropyl)-2-((S)-2-((2S,3R)-2-(3-(4-(2-benzylphenoxy)piperidin-1-yl)propanamido)-3-hydroxybutanamido)propanamido)succinamide] ({Propanoyl(3-Pip(4-O-2-BnPh))}-TAN[βAla]K(X1)-NH2) | 5 | 8.29 ± 0.07
11 |  |  | CC(C)[C@H](NC(=O)CCN1CCC(Oc2ccccc2Cc2ccccc2)CC1)C(=O)N[C@@H](CO)C(=O)N[C@@H](Cc1ccc(O)cc1)C(=O)NCCC(=O)N[C@@H](CCCCNC(=O)COc1ccc(/C=C/C2=[N+]3C(=Cc4ccc(-c5cccs5)n4[B-]3(F)F)C=C2)cc1)C(N)=O [Compound 31e, (S)-2-((6S,9S,12S)-16-(4-(2-Benzylphenoxy)piperidin-1-yl)-6-(4-hydroxybenzyl)-9-(hydroxymethyl)-12-isopropyl-5,8,11,14-tetraoxo-4,7,10,13-tetraazahexadecanamido)-6-(2-(4-((E)-2-(5,5-difluoro-7-(thiophen-2-yl)-5H-5λ^4,6λ^4-dipyrrolo[1,2-c:2’,1’-f][1,3,2]diazaborinin-3-yl)vinyl)phenoxy)acetamido)hexanamide] ({Propanoyl(3-Pip(4-O-2-BnPh))}-VSY[βAla]K(X1)-NH2) | 16 | 7.80 ± 0.11
12 | 89 | 6.36 | (S)-N-((S)-1-(((S)-1-(((S)-1-Amino-1-oxo-3-phenylpropan-2-yl)amino)-3-(4-hydroxyphenyl)-1-oxopropan-2-yl)amino)-3-hydroxy-1-oxopropan-2-yl)-2-(3-(4-(2-benzylphenoxy)piperidin-1-yl)propanamido)-3-methylbutanamide [Compound 11a] |  | 
